Reference: patent US11608341B2, “Substituted tetrahydropyrazolo[3,4-d]pyrimidines and tetrahydropyrazolo[4,3-d]pyrimidines as C5A receptor modulators” (Idorsia Pharmaceuticals Ltd., priority 2018, dated 2023)
pIC50: −log10 of the molar value.

Molecular target: T1, C5AR1 (Homo sapiens, UniProt P21730)
T1 construct: host or cells: CHO-K1
T1 sequence (P21730 1-350): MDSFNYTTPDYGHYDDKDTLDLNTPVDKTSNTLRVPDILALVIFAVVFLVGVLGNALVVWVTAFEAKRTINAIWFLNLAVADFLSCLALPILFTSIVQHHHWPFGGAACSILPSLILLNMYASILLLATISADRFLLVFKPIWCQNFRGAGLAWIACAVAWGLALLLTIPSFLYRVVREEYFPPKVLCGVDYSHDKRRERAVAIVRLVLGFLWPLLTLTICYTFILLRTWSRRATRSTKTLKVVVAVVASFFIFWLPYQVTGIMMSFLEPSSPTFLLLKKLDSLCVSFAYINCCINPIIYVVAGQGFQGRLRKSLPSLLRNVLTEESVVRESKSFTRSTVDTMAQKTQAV
Assay: In vitro assay: antagonism of C5a-induced beta-arrestin recruitment (PathHunter) in CHO-K1 C5AR1 beta-arrestin cell line
Format: cell-based
Settings: antagonistic activity, 1-10 nM C5a agonist, geometric mean where several measurements, read-out: C5aR IC50
Experimental: 5 μl Antagonist at 6-fold end concentration or DMSO control is added to assay medium and subsequently 5 μl 1-10 nM C5a agonist at 6 fold end concentration. Cells are centrifuged for 1 min at 1000 rpm and incubated for 1.5 hour in at 37° C. Plates are equilibrated at room temperature for several minutes before adding 12 μl/well Detection Reagent (PathHunter Detection Kit, DiscoverX, Cat #93-0001). Plates are centrifuged for 1 min at 1000 rpm and incubated for 45 minutes at RT before being measured on a Fluostar Optima, BMG Labtech. IC50 values are calculated from a serial dilution range of antagonist using inhouse software and given in nmol/l.
The calculated IC50 values may fluctuate depending on the daily cellular assay performance. Fluctuations of this kind are known to those skilled in the art. Average IC50 values from several measurements are given as geometric mean values.

Row | SMILES | pIC50
1 | Cc1cccc(F)c1N1CCC(N2Cc3cn(C)nc3N(Cc3ccccc3OC3COC3)C2=O)CC1 [Example 250] | 8.00
2 | Cc1cccc(F)c1N1CCC(N2Cc3cnn(CC4CC4)c3N(Cc3ccccc3C(F)(F)F)C2=O)CC1 [Example 210] | 7.34
3 | COc1nccc(C)c1N1CCC(N2C(=O)N(Cc3ccccc3C(F)(F)F)c3cn(C4CC4)nc3C2C)CC1 (single isomer, unassigned) [Example 296] | 7.82
4 | Cc1cccc(F)c1N1CCC(N2Cc3cn(C)nc3N(Cc3ccccc3OCC3CC3)C2=O)CC1 [Example 248] | 7.80
5 | Cc1cccc(F)c1N1CCC(N2C(=O)N(Cc3ccccc3C(F)(F)F)c3n[nH]cc3C2C)CC1 (single isomer, unassigned) [Example 316] | 8.05
6 | Cc1cccc(F)c1N1CCC(N2Cc3nn(C(C)(C)C)cc3N(Cc3ccccc3C(F)(F)F)C2=O)CC1 [Example 183] | 7.66
7 | Cc1cccc(F)c1N1CCC(N2Cc3nn(COCC[Si](C)(C)C)cc3N(Cc3ncccc3C(F)(F)F)C2=O)CC1 [Example 199] | 7.49
8 | CC1c2cn(C3CC3)nc2N(Cc2ccccc2C(F)(F)F)C(=O)N1C1CCN(c2c(F)cccc2Cl)CC1 (single isomer, unassigned) [Example 336] | 7.05
9 | Cc1nnc(N2CC(n3cc4c(n3)N(Cc3ccccc3C(F)(F)F)C(=O)N(C3CCN(c5c(C)cccc5F)CC3)C4)C2)o1 [Example 142] | 7.49
10 | COC(=O)N1CC[C@@H]1Cn1cc2c(n1)N(Cc1ccccc1C(F)(F)F)C(=O)N(C1CCN(c3c(C)cccc3F)CC1)C2 [Example 133] | 7.66
11 | CC1c2cn(C)nc2N(Cc2ccccc2C2CC2)C(=O)N1C1CCN(c2c(F)cccc2Cl)CC1 (single isomer, unassigned) [Example 321] | 6.71
12 | Cc1cccc(F)c1N1CCC(N2Cc3nn(CC4(F)CC4)cc3N(Cc3ccccc3C(F)(F)F)C2=O)CC1 [Example 184] | 8.05
13 | Cc1cccc(F)c1N1CCC(N2Cc3cn(C4CN(C(=O)N(C)C)C4)nc3N(Cc3ccccc3C(F)(F)F)C2=O)CC1 [Example 119] | 6.53
14 | Cc1cccc(F)c1N1CCC(N2Cc3cn(C)nc3N(Cc3ccccc3OC3CC3)C2=O)CC1 [Example 21] | 7.89
15 | CC1c2cn(C)nc2N(Cc2ccccc2C2CC2)C(=O)N1C1CCN(c2c(F)cccc2C2CC2)CC1 (single isomer, unassigned) [Example 326] | 6.45
16 | Cc1cccc(F)c1N1CCC(N2Cc3cn(C4CN(C(=O)OC(C)(C)C)C4)nc3N(Cc3ccccc3C(F)(F)F)C2=O)CC1 [Example 91] | 7.59
17 | Cc1cccc(F)c1N1CCC(N2Cc3cn(CC(C)CO)nc3N(Cc3ccccc3C(F)(F)F)C2=O)CC1 (stereo not drawn) [Example 39] | 7.80

Row | SMILES | pIC50
18 | Cc1cccc(F)c1N1CCC(N2C(=O)N(Cc3ccccc3C(F)(F)F)c3cn(C4CC4)nc3C2C)CC1 (single isomer, unassigned) [Example 265] | 7.92
19 | Cc1cccc(F)c1N1CCC(N2Cc3cn(C4CN(C(=O)OCC(C)C)C4)nc3N(Cc3ccccc3C(F)(F)F)C2=O)CC1 [Example 132] | 8.10
20 | Cc1cccc(F)c1N1CCC(N2Cc3cn(CC4(O)COC4)nc3N(Cc3ccccc3C(F)(F)F)C2=O)CC1 [Example 171] | 7.77
21 | Cc1cccc(F)c1N1CCC(N2Cc3cn(C4CN(C(=O)OC5(C(F)(F)F)COC5)C4)nc3N(Cc3ccccc3C(F)(F)F)C2=O)CC1 [Example 140] | 7.74
22 | Cc1nccc(F)c1N1CCC(N2Cc3cn(C)nc3N(Cc3ccccc3C(F)(F)F)C2=O)CC1 [Example 86] | 6.64
23 | Cc1cccc(F)c1N1CCC(N2Cc3nn(CC4CC4)cc3N(Cc3ccccc3C(F)(F)F)C2=O)CC1 [Example 178] | 7.80
24 | Cc1cccc(F)c1N1CCC(N2Cc3nn(C4CC4)cc3N(Cc3ccccc3C(F)(F)F)C2=O)CC1 [Example 175] | 7.85
25 | COc1nccc(C)c1N1CCC(N2Cc3cn(C4CC4)nc3N(Cc3ccccc3C(F)(F)F)C2=O)CC1 [Example 209] | 8.30
26 | COc1nccc(C)c1N1CCC(N2Cc3nn(CC4(F)CC4)cc3N(Cc3ccccc3C(F)(F)F)C2=O)CC1 [Example 222] | 7.72
27 | Cn1cc2c(n1)N(Cc1ccccc1C(F)(F)F)C(=O)N(C1CCN(c3ncccc3F)CC1)C2 [Example 68] | 6.50
28 | Cc1cccc(Cl)c1N1CCC(N2Cc3cn(C)nc3N(Cc3ccccc3C(F)(F)F)C2=O)CC1 [Example 245] | 7.80
29 | Cc1cccc(F)c1N1CCC(N2C(=O)N(Cc3ccccc3C(F)(F)F)c3cnn(CC(C)(F)F)c3C2C)CC1 (single isomer, unassigned) [Example 255] | 7.06
30 | Cc1cccc(F)c1N1CCC(N2Cc3cn(C4CN(c5nnc(C(F)(F)F)o5)C4)nc3N(Cc3ccccc3C(F)(F)F)C2=O)CC1 [Example 144] | 7.85
31 | Cn1cc2c(n1)N(Cc1ccccc1C1CC1)C(=O)N(C1CCN(c3c(F)cccc3C(F)F)CC1)C2 [Example 308] | 7.66
32 | Cc1cccc(F)c1N1CCC(N2Cc3cn(C)nc3N(Cc3ccccc3C(F)(F)F)C2=O)C1 (stereo not drawn) [Example 44] | 7.46
33 | Cc1cccc(F)c1N1CCC(N2Cc3cn(CC(C)(C)O)nc3N(Cc3ccccc3C(F)(F)F)C2=O)CC1 [Example 25] | 7.74

Further lines, results first:

Row | pIC50 | SMILES
34 | 6.69 | COc1nccc(C(F)F)c1N1CCC(N2C(=O)N(Cc3ccccc3C3CC3)c3nn(C4CC4)cc3C2C)CC1 (single isomer, unassigned) [Example 383]
35 | 7.70 | COc1nccc(C)c1N1CCC(N2C(=O)N(Cc3ccccc3C3CC3)c3cn(C4CC4)nc3C2C)CC1 (single isomer, unassigned) [Example 293]
36 | 7.15 | Cc1cccc(F)c1N1CCC(N2Cc3cn(C(=O)N(C)C)nc3N(Cc3ccccc3C(F)(F)F)C2=O)CC1 [Example 149]
37 | 7.00 | Cc1cccc(F)c1N1CCC(N2Cc3cn(C4CN(C(=O)C(C)C)C4)nc3N(Cc3ccccc3C(F)(F)F)C2=O)CC1 [Example 131]
38 | 7.14 | Cc1ccnc(F)c1N1CCC(N2Cc3cn(C)nc3N(Cc3ccccc3C(F)(F)F)C2=O)CC1 [Example 52]
39 | 6.82 | Cc1cccc(F)c1N1CCC(N2Cc3c(cnn3CC3CC3)N(Cc3ccccc3C(F)(F)F)C2=O)CC1 [Example 179]
40 | 7.80 | Cn1cc2c(n1)N(Cc1ccccc1C(F)(F)F)C(=O)N(C1CCN(c3c(F)cccc3OC(F)(F)F)CC1)C2 [Example 244]
41 | 7.72 | COc1nccc(C(F)F)c1N1CCC(N2C(=O)N(Cc3ccccc3C3CC3)c3n[nH]cc3C2C)CC1 (single isomer, unassigned) [Example 370]
42 | 6.47 | COc1ncnc(OC)c1N1CCC(N2Cc3cn(C)nc3N(Cc3ccccc3C(F)(F)F)C2=O)CC1 [Example 100]
43 | 6.47 | Cc1cccc(F)c1N1CCC(N2Cc3cn(C(=O)OCC(C)C)nc3N(Cc3ccccc3C(F)(F)F)C2=O)CC1 [Example 148]
44 | 6.45 | CCN1CC(n2cc3c(n2)N(Cc2ccccc2C(F)(F)F)C(=O)N(C2CCN(c4c(C)cccc4F)CC2)C3)C1 [Example 103]
45 | 7.60 | Cc1cccc(F)c1N1CCC(N2Cc3cn(CC(C)C)nc3N(Cc3ccccc3C(F)(F)F)C2=O)CC1 [Example 155]
46 | 7.14 | CC1c2cn(C3CC3)nc2N(Cc2ccccc2C(F)(F)F)C(=O)N1C1CCN(c2c(F)cccc2C(F)F)CC1 (single isomer, unassigned) [Example 312]
47 | 6.45 | Cc1cccc(F)c1N1CCC(N2C(=O)N(Cc3ccccc3C(F)(F)F)c3cn(C4CC4)nc3C2C)CC1 (single isomer, unassigned) [Example 266]
48 | 6.71 | CNCCn1cc2c(n1)N(Cc1ccccc1C(F)(F)F)C(=O)N(C1CCN(c3c(C)cccc3F)CC1)C2 [Example 59]
49 | 6.99 | Cc1cccc(F)c1N1CCC(N2Cc3cn(CC(N)=O)nc3N(Cc3ccccc3C(F)(F)F)C2=O)CC1 [Example 29]
50 | 8.10 | COc1nccc(C)c1N1CCC(N2Cc3cn(C)nc3N(Cc3ccccc3C3CC3)C2=O)CC1 [Example 283]
51 | 6.11 | CC1c2c[nH]nc2N(Cc2ccccc2C(F)(F)F)C(=O)N1C1CCN(c2c(F)cccc2Cl)CC1 (single isomer, unassigned) [Example 351]
52 | 6.70 | Cc1cccc(F)c1N1CCC(N2Cc3cn(C)nc3N(Cc3nnccc3OC(C)C)C2=O)CC1 [Example 267]
53 | 6.41 | Cc1cccc(F)c1N1CCC(N2Cc3cn(C[C@H]4CCN4)nc3N(Cc3ccccc3C(F)(F)F)C2=O)CC1 [Example 130]
54 | 7.92 | COc1nccc(C(F)F)c1N1CCC(N2C(=O)N(Cc3ccccc3C(F)(F)F)c3nn(C4CC4)cc3C2C)CC1 (single isomer, unassigned) [Example 358]
55 | 7.55 | Cc1cccc(F)c1N1CCC(N2Cc3cn(CC(C)(C)NS(=O)(=O)c4ccccc4[N+](=O)[O-])nc3N(Cc3ccccc3C(F)(F)F)C2=O)CC1 [Example 110]
56 | 6.84 | COc1nccc(C(F)(F)F)c1N1CCC(N2C(=O)N(Cc3ccccc3C3CC3)c3nn(C)cc3C2C)CC1 (single isomer, unassigned) [Example 375]
57 | 7.66 | COC1CN(CCn2cc3c(n2)N(Cc2ccccc2C(F)(F)F)C(=O)N(C2CCN(c4c(C)cccc4F)CC2)C3)C1 [Example 34]
